In patent US5824706A (priority 1995, dated 1998):
pEC50: −log10 of the molar value. Where two headings read alike, the source gives them in different places.

Experiments:
in vitro [1] = settings: monkey, vero cells, Cytotoxicity IC50 Vero, Table 3
FluV-A = assay: microbe, parasite or virus in culture; format: cell-based, influenza virus A/Ishikawa/7/82 (H3N2)
HMV-2 cells = settings: read-out: Cytotoxicity IC50 HMV-2, Table 3
in vitro [2] = settings: human, hep-2 cells
in vitro [3] = settings: human, hmv-2 cells
PFluV-2 = assay: MTT antiviral assay, parainfluenzavirus type 2 in HMV-2 cells; format: cell-based, Greer strain; settings: Table 3, average of 3 to 4 independent experiments, read-out: EC50 PFluV-2 (Greer)
MLSV = assay: microbe, parasite or virus in culture; format: cell-based, Measles virus (MLSV) Edmonston strain; settings: Measles morbillivirus
RSV-B (SM61-48) = assay: microbe, parasite or virus in culture; format: cell-based, RSV SM-61-48 (type-B); settings: human respiratory syncytial virus; Table 3; fresh isolate; ^b data from one experiment
in vitro [4] = settings: dog, mdck
PFluV-3 = assay: MTT antiviral assay, parainfluenzavirus type 3 in Vero cells; format: cell-based, C243 strain; settings: Table 3, average of 3 to 4 independent experiments, read-out: EC50 PFluV-3 (C243)
RSV = assay: microbe, parasite or virus in culture; format: cell-based, RSV Long strain (type-A); settings: human respiratory syncytial virus
RSV-A (FM-58-8) = assay: microbe, parasite or virus in culture; format: cell-based, RSV FM-58-8 (type-A); settings: human respiratory syncytial virus; Table 3; fresh isolate; ^b data from one experiment
FluV-B = assay: MTT antiviral assay, FluV-B in MDCK cells; format: cell-based, influenza virus B/Singapore/222/79; settings: influenza B virus, read-out: EC50 FluV-B (Singapore)
MPSV = assay: MTT antiviral assay, mumps virus in HMV-2 cells; format: cell-based, mumps virus (MPSV) ECXH-3 strain; settings: Mumps orthorubulavirus, HMV-2, read-out: EC50 MPSV (EXCH-3)
[5] = viable cell counting (parentheses)

## NC(=O)c1ncn([C@@H]2O[C@H](CO)[C@@H](O)[C@H]2O)n1 [Ribavirin]
In vitro [1]; MTT method
  CC50: 100 µM
In vitro [1]; [5]
  CC50: > 200 µM
FluV-A; Ishikawa, read-out: EC50 FluV-A (Ishikawa)
  pEC50: 5.43
FluV-A; MDCK, read-out: Antiviral activity, EC50 FluV-A
  pEC50: 5.06
HMV-2 cells; MTT method
  CC50: > 100 µM
HMV-2 cells; [5]
  CC50: > 100 µM
In vitro [2]; Cytotoxicity IC50 HEp-2, Table 3, MTT method
  CC50: 52.7 µM
In vitro [2]; Cytotoxicity IC50 HEp-2, Table 3, viable cell counting (parentheses)
  CC50: > 200 µM
In vitro [2]; Cytotoxicity, IC50 HEp-2, Table 2
  CC50: > 50 µM
In vitro [3]
  CC50: > 100 µM
PFluV-2
  pEC50: 5.05
MLSV; HMV-2, read-out: Antiviral activity, EC50 MLSV
  pEC50: 5.28
MLSV; HMV-2, read-out: EC50 MLSV (Edmonston)
  pEC50: 5.28
RSV-B (SM61-48)
  pEC50: 5.80
In vitro [4]; Cytotoxicity IC50 MDCK, Table 3, MTT method
  CC50: > 200 µM
In vitro [4]; Cytotoxicity IC50 MDCK, Table 3, viable cell counting (parentheses)
  CC50: > 200 µM
In vitro [4]; Cytotoxicity, IC50 MDCK, Table 2
  CC50: > 100 µM
PFluV-3
  pEC50: 4.76
RSV; Table 2, read-out: Antiviral activity, EC50 RSV
  pEC50: 5.33
RSV; Table 3, average of 3 to 4 independent experiments, read-out: EC50 RSV-A (Long)
  pEC50: 5.33
RSV-A (FM-58-8)
  pEC50: 5.46
FluV-B
  pEC50: 5.29
MPSV
  pEC50: 5.47
